Entries after “also recorded” stand apart in the source; their conditions may differ.
What was measured:
Type in all cases: cell-based, human
COV434 cells [1] = experiment: Cell morphology by Giemsa staining; settings: COV434, 72 h; 5 μM Mito6_TPP, 20 μM Mito6_picol., 10 μM Mito6_isoq.
Protocol: (§1) Morphological changes in all cell lines were evaluated by phase-contrast microscopy (Eclipse TS100 Inverted Microscope, Nikon, Tokyo, Japan) and Giemsa staining. […] The cells were plated in 24-well plates with coverslips using the densities of 1 × 10^5 cells/well in Ishikawa and Hec50co and 2.5 × 10^5 cells/well in COV434 and HFF-1. After adherence, the cells were treated with Mito6_TPP (5 μM), Mito6_picol. (20 μM), or Mito6_isoq. (10 μM) and incubated at 37 °C with 5% CO2 for 72 h. For Giemsa staining, the cells were fixated with paraformaldehyde 4% in Phosphate Buffered Saline (PBS) for 15 min, stained with Giemsa solution for 30 min, mounted with DPX, and observed through bright field microscopy. For Höechst staining, the cells were incubated with 0.5 μg/mL Höechst 33342 in PBS for 20 min in the dark, mounted in Fluoroshield, and observed under a fluorescence microscope equipped with an excitation filter with maximum transmission at 360/400 nm. In both stainings, the cells were observed using the microscope Eclipse CI (Nikon, Japan) and the images were processed with Nikon NIS Elements Image Software (Nikon, Japan).

Ishikawa cells [2] = experiment: Cell morphology by Giemsa staining; settings: 72 h, 5 μM Mito6_TPP, 20 μM Mito6_picol., 10 μM Mito6_isoq.
Protocol: as §1

COV434 cells [3] = experiment: Nuclear changes by Höechst staining; settings: COV434, 72 h, 5 μM Mito6_TPP, 10 μM Mito6_isoq.; for Nucleus shape and chromatin condensation (Höechst staining): 20 μM Mito6_picol.
Protocol: as §1

Hec50co cells [4] = experiment: Nuclear changes by Höechst staining; settings: 72 h, 5 μM Mito6_TPP, 10 μM Mito6_isoq.; for Nucleus shape and chromatin condensation (Höechst staining): 20 μM Mito6_picol.
Protocol: as §1

Ishikawa cells [5] = experiment: Nuclear changes by Höechst staining; settings: 72 h, 5 μM Mito6_TPP, 10 μM Mito6_isoq.; for Nucleus shape and chromatin condensation (Höechst staining): 20 μM Mito6_picol.
Protocol: as §1

COV434 cells [6] = experiment: Mitochondrial membrane potential (Δψm) assessment, DiOC6 probe; settings: COV434, 48 h; 5 μM Mito6_TPP, 20 μM Mito6_picol., 10 μM Mito6_isoq.
Protocol: (§2) The Ishikawa, Hec50co, COV434, and HFF-1 cell lines were plated at a density of 5 × 10^4 cells/well in black 96-well plates. After 24 h, the cells were treated with Mito6_TPP (5 μM), Mito6_picol. (20 μM), or Mito6_isoq. (10 μM) and incubated at 37 °C with 5% CO2 for 48 h. The Δψm study was adapted from the work of Sivandzade et al.. The mitochondrial membrane-depolarizing agent carbonyl cyanide m-chlorophenylhydrazone (CCCP) (50 μM) was used as the positive control, being added to the cells for 20 min prior to the addition of the probe DiOC6 (100 nM) for 30 min at 37 °C in the dark. The fluorescence was then measured using a BioTek Synergy HTX Multi-Mode Microplate Fluorimeter equipped with BioTek Gen5 Data Collection and Analysis Software (BioTek Instruments, Winooski, VT, USA) (excitation: 488 nm; emission: 525 nm).

Hec50co cells [7] = experiment: as above; settings: 48 h, 5 μM Mito6_TPP, 20 μM Mito6_picol., 10 μM Mito6_isoq.
Protocol: as §2

Ishikawa cells [8] = experiment: as above; settings: 48 h, 5 μM Mito6_TPP, 20 μM Mito6_picol., 10 μM Mito6_isoq.
Protocol: as §2

| Compound | Cell morphology changes (Giemsa staining) (COV434 cells [1]) | Cell morphology changes (Giemsa staining) (Ishikawa cells [2]) | Nuclear fragmentation (Höechst staining) (COV434 cells [3]) | Nucleus shape and chromatin condensation (Höechst staining) (COV434 cells [3]) | Nuclear fragmentation (Höechst staining) (Hec50co cells [4]) | Nucleus shape and chromatin condensation (Höechst staining) (Hec50co cells [4]) | Nuclear fragmentation (Höechst staining) (Ishikawa cells [5]) | Nucleus shape and chromatin condensation (Höechst staining) (Ishikawa cells [5]) | Mitochondrial membrane potential (Δψm) change vs untreated cells (COV434 cells [6]) | Mitochondrial membrane potential (Δψm) change vs untreated cells (Hec50co cells [7]) | Mitochondrial membrane potential (Δψm) change vs untreated cells (Ishikawa cells [8]) |
| --- | --- | --- | --- | --- | --- | --- | --- | --- | --- | --- | --- |
| O=C(/C=C/c1ccc(O)c(O)c1)NCCCCCCCCCC[P+](c1ccccc1)(c1ccccc1)c1ccccc1 [Mito6_TPP] | altered cell shapes and indications of chromatin condensation | altered cell shapes and indications of chromatin condensation | nuclear fragmentation visible | changes in the nucleus shape and the chromatin condensation | nuclear fragmentation visible | changes in the nucleus shape and the chromatin condensation | nuclear fragmentation visible | changes in the nucleus shape and the chromatin condensation | significant decrease | significant decrease | significant decrease |
| O=C(/C=C/c1ccc(O)c(O)c1)NCCCCCCCCCC[n+]1ccc2ccccc2c1 [Mito6_isoq.] | cell shape alterations; also recorded: indications of chromatin condensation | cell shape alterations | nuclear fragmentation visible | changes in the nucleus shape and the chromatin condensation | nuclear fragmentation visible | changes in the nucleus shape and the chromatin condensation | nuclear fragmentation visible | changes in the nucleus shape and the chromatin condensation | significant decrease | significant decrease | significant decrease |
| Cc1cc[n+](CCCCCCCCCCNC(=O)/C=C/c2ccc(O)c(O)c2)cc1 [Mito6_picol.] | did not induce any morphological changes | did not induce any morphological changes |  | did not induce any morphological changes |  | did not induce any morphological changes |  | did not induce any morphological changes | decrease | decrease only in the Ishikawa and COV434 cells | decrease |
